Experimental findings from patent US20050215544A1, “Methods of treating HIV infection” (priority 2004, published 2005) are described below.

In experiment [1] the test system is HIV-1 LAI. The experiment is described as follows: Two-drug combination antiviral assay with Compound 1 (combination indices, Chou and Rideout). The class given is cell-based. Particulars: combination with Compound 1; for Combination Indices at 50% HIV Inhibition (Confidence Interval) / Combination Indices at 75% HIV Inhibition (Confidence Interval) / Combination Indices at 90% HIV Inhibition (Confidence Interval): 95% CI in parenthesis; for Overall Result of two-drug combination: all ratios and inhibition levels. Here is the method:
(§1) Virus and cell lines. The T-cell lines, MT-2 and PM-1 were obtained through the AIDS Research and Reference Reagent Program, NIAID, and were contributed by Dr. D. Richman and Dr. R. Gallo, respectively. Both cell lines were cultured in RPMI 1640 medium supplemented with 10% fetal bovine serum, 2 mM L-glutamine and sub-cultured twice a week. The LAI strain of HIV-1 was obtained from the Fred Hutchinson Cancer Research Center, and the Bal strain was from NIH. Both virus stocks were amplified and titered in MT-2 cells (LAI) and PM-1 cells (Bal) using a virus infectivity assay.
(§2) Drug Susceptibility and Cytotoxicity Assays. For drug susceptibility assays, MT-2 cells were infected with HIV-1 LAI (or PM-1 cells with HIV-1 Bal) at an MOI of 0.005, and seeded into 96-well microtiter plates ([…] cells/ml) containing serial dilutions of test compounds. […] Each drug ratio consisted of an array of 3-fold serial dilutions, and was performed in quadruplicate. The plates were incubated at 37° C./5% CO2. The MT-2 cells infected with HIV-1 LAI were incubated for 5 days. On day-five post-infection, 20 μl from each well was harvested and quantitated by a reverse transcriptase (RT) assay, or in samples involving non-nucleoside RT inhibitors, an MTS assay. The PM-1 cells infected with HIV-1 Bal and used for studying the combinations with CCR5 inhibitors were incubated for six days. On day-six post-infection, 20 μl from each well was harvested, 20- and 50-fold diluted and quantitated by p24 assay. Cytotoxicity assays were performed using uninfected cells, exposed to the same drug combinations, and incubated for six days. Cell viability was determined by an MTS assay. The CC50 values were calculated by using the exponential form of the median effect equation as mentioned below for calculation of EC50.
Analysis of Drug Combination Effects. For determination of CI values, drugs were diluted in a fixed ratio and multiple ratios were analyzed. The drug serial dilutions spanned a range of concentrations near the EC50 value of each compound, so that equivalent antiviral activities could be compared. Concentration-response curves were estimated for each individual drug and every combination using the median-effect equation. The equation was fit using a nonlinear regression routine (Proc Nlin) in PC SAS version 8.01 (SAS Institute Inc., SAS Version 8.01, Cary, NC: SAS Institute Inc., 1990).
(§3) In this equation, Fa stands for “fraction affected,” and represents the fraction of the viral load that has been inactivated. […] ED50 is drug concentration that is expected to reduce the amount of virus by 50%, and m is a parameter that reflects the slope of the concentration-response curve.
To assess antiviral effects of different drug combination treatments, combination indices (CIs) were calculated according to Chou and Rideout. The combination index was computed as CI=[D]1/[Dm]1+[D]2/[Dm]2
In this equation [Dm]1 and [Dm]2 are the concentrations of drugs that would individually produce a specific level of effect, while [D]1 and [D]2 are the concentrations of drugs in combination that would produce the same level of effect.
Theoretically, additivity is implied if the CI is equal to one, synergy if the CI is less than one, and antagonism if the CI is greater than one. […] At best, we can construct a range that contains the likely values for the CI, given the noise in the data. In this report, these ranges are reported in parentheses next to each point estimate of the CI. […] If the range fell entirely above 1.0, we would infer antagonistic behavior. If the range were to include 1.0, we would infer additivity.

In experiment [2] the test system is HIV-1 LAI. The experiment is described as follows: microbe, parasite or virus in culture. Particulars: Human immunodeficiency virus 1, MT2, 120 h. Here is the method: as §1, §2, §3
In carrying out the combination experiments below, the EC50 for Compound 1 and each comparator compound was determined during the course of each study, and used in the subsequent data analysis.

The mark [3] stands for this setting: EC50 ratio 1:1 (Compound 1 to comparator).
The mark [4] stands for this setting: EC50 ratio 1:2.5 (Compound 1 to comparator).
Setting [5] is: EC50 ratio 2.5:1 (Compound 1 to comparator).

The term EC50 denotes the concentration that produces a half-maximal response. Take `Nc1nc(NC2CC2)c2ncn([C@H]3C=C[C@@H](CO)C3)c2n1` [Abacavir]: in experiment [1] (setting [3]), the “Combination Indices at 50% HIV Inhibition (Confidence Interval)” value was 0.18 (0.13, 0.23); the “Combination Indices at 75% HIV Inhibition (Confidence Interval)” value was 0.47 (0.30, 0.64); the “Combination Indices at 90% HIV Inhibition (Confidence Interval)” value is given as 1.23 (0.52, 1.94). Further, in experiment [1] (setting [4]), the “Combination Indices at 50% HIV Inhibition (Confidence Interval)” value is recorded as 0.34 (0.27, 0.41); the “Combination Indices at 75% HIV Inhibition (Confidence Interval)” value was 0.64 (0.45, 0.83); the “Combination Indices at 90% HIV Inhibition (Confidence Interval)” value was 1.22 (0.65, 1.79). Moreover, in experiment [1] (setting [5]), the “Combination Indices at 50% HIV Inhibition (Confidence Interval)” value was 0.23 (0.19, 0.28); the “Combination Indices at 75% HIV Inhibition (Confidence Interval)” value is on record as 0.42 (0.30, 0.53); the “Combination Indices at 90% HIV Inhibition (Confidence Interval)” value was 0.75 (0.42, 1.07). Also, the “Overall Result of two-drug combination” value in experiment [1] is “Additive-”. Besides, the EC50 in experiment [2] is 528 nM.

On to `CC(C)CN(C[C@@H](O)[C@H](Cc1ccccc1)NC(=O)O[C@H]1CCOC1)S(=O)(=O)c1ccc(N)cc1` [Amprenavir], for which, in experiment [1] (setting [3]), the “Combination Indices at 50% HIV Inhibition (Confidence Interval)” value is reported as 0.47 (0.33, 0.62); the “Combination Indices at 75% HIV Inhibition (Confidence Interval)” value is recorded as 0.76 (0.44, 1.09); the “Combination Indices at 90% HIV Inhibition (Confidence Interval)” value was 1.37 (6.46, 2.28). Besides, in experiment [1] (setting [4]), the “Combination Indices at 50% HIV Inhibition (Confidence Interval)” value was 0.63 (0.45, 0.81); the “Combination Indices at 75% HIV Inhibition (Confidence Interval)” value was 0.72 (0.44, 1.01); the “Combination Indices at 90% HIV Inhibition (Confidence Interval)” value is given as 0.99 (0.38, 1.60). In experiment [1] (setting [5]), the “Combination Indices at 50% HIV Inhibition (Confidence Interval)” value was 0.20 (0.12, 0.28); the “Combination Indices at 75% HIV Inhibition (Confidence Interval)” value was 0.60 (0.28, 0.92); the “Combination Indices at 90% HIV Inhibition (Confidence Interval)” value is reported as 1.87 (0.24, 3.50). For the same compound, in experiment [1], the “Overall Result of two-drug combination” value was “Additive-”. Moreover, the EC50 in experiment [2] is 35 nM.

Regarding `COC(=O)N[C@H](C(=O)N[C@@H](Cc1ccccc1)[C@@H](O)CN(Cc1ccc(-c2ccccn2)cc1)NC(=O)[C@@H](NC(=O)OC)C(C)(C)C)C(C)(C)C` [Atazanavir], in experiment [1] (setting [3]), the “Combination Indices at 50% HIV Inhibition (Confidence Interval)” value is given as 0.76 (0.64, 0.89); the “Combination Indices at 75% HIV Inhibition (Confidence Interval)” value is given as 0.89 (0.69, 1.10); the “Combination Indices at 90% HIV Inhibition (Confidence Interval)” value was 1.07 (0.68, 1.46). Also, in experiment [1] (setting [4]), the “Combination Indices at 50% HIV Inhibition (Confidence Interval)” value is 0.28 (0.25, 0.31); the “Combination Indices at 75% HIV Inhibition (Confidence Interval)” value was 0.38 (0.33, 0.44); the “Combination Indices at 90% HIV Inhibition (Confidence Interval)” value is given as 0.54 (0.42, 0.66). In experiment [1] (setting [5]), the “Combination Indices at 50% HIV Inhibition (Confidence Interval)” value was 0.08 (0.07, 0.09); the “Combination Indices at 75% HIV Inhibition (Confidence Interval)” value is recorded as 0.14 (0.12, 0.17); the “Combination Indices at 90% HIV Inhibition (Confidence Interval)” value is 0.25 (0.18, 0.33). For the same compound, in experiment [1], the “Overall Result of two-drug combination” value is on record as “Additive-”. The EC50 in experiment [2] was 0.5 nM.

For the compound `O=C(C(=O)N1CCN(C(=O)c2ccccc2)CC1)c1c[nH]c2c(-n3ccnn3)ncc(F)c12` [Compound 1, 1-Benzoyl-4-[2-[4-fluoro-7-(1H-1,2,3-triazol-1-yl)-1H-pyrrolo[2,3-c]pyridin-3-yl]-1,2-dioxoethyl]-piperazine], in experiment [1], the “Overall Result of two-drug combination” value was “synergistic or additive-synergistic”. For the same compound, the EC50 in experiment [2] fell in the range of 0.1 to 0.3 nM.

Take `CC(C)Nc1cccnc1N1CCN(C(=O)c2cc3cc(NS(C)(=O)=O)ccc3[nH]2)CC1` [Delavirdine]: the “Combination Indices at 50% HIV Inhibition (Confidence Interval)” value is listed as 0.79 (0.55, 1.03) in experiment [1] (setting [3]); 0.99 (0.72, 1.26) in experiment [1] (setting [4]); 0.56 (0.28, 0.84) in experiment [1] (setting [5]). Also, the “Combination Indices at 75% HIV Inhibition (Confidence Interval)” value in experiment [1] (setting [3]) is on record as 0.59 (0.35, 0.84); in experiment [1] (setting [4]) it was 0.90 (0.56, 1.23); in experiment [1] (setting [5]), 0.51 (0.16, 0.86). Further, the “Combination Indices at 90% HIV Inhibition (Confidence Interval)” value is reported as 0.45 (0.16, 0.73) in experiment [1] (setting [3]); 0.81 (0.34, 1.29) in experiment [1] (setting [4]); 0.45 (0.00, 0.95) in experiment [1] (setting [5]). The figures for the “Overall Result of two-drug combination” value in experiment [1] and in experiment [1] (listed as delavirdine) were “Additive-” and “additive to synergistic”, respectively. For the same compound, the EC50 in experiment [2] came to 99 nM.

`O=c1[nH]cnc2c1ncn2[C@H]1CC[C@@H](CO)O1` [Didanosine]: in experiment [1] (setting [3]), the “Combination Indices at 50% HIV Inhibition (Confidence Interval)” value is on record as 0.91 (0.74, 1.09); the “Combination Indices at 75% HIV Inhibition (Confidence Interval)” value is 0.88 (0.65, 1.11); the “Combination Indices at 90% HIV Inhibition (Confidence Interval)” value is 0.88 (0.52, 1.24). In experiment [1] (setting [4]), the “Combination Indices at 50% HIV Inhibition (Confidence Interval)” value was 0.22 (0.19, 0.25); the “Combination Indices at 75% HIV Inhibition (Confidence Interval)” value is reported as 0.18 (0.14, 0.22); the “Combination Indices at 90% HIV Inhibition (Confidence Interval)” value is reported as 0.16 (0.10, 0.21). Besides, in experiment [1] (setting [5]), the “Combination Indices at 50% HIV Inhibition (Confidence Interval)” value is 1.02 (0.83, 1.22); the “Combination Indices at 75% HIV Inhibition (Confidence Interval)” value was 0.96 (0.70, 1.21); the “Combination Indices at 90% HIV Inhibition (Confidence Interval)” value is given as 0.91 (0.53, 1.29). Further, the “Overall Result of two-drug combination” value in experiment [1] is recorded as “Additive-”. Also, the EC50 in experiment [2] stood at 644 nM.

Consider `O=C1Nc2ccc(Cl)cc2[C@@](C#CC2CC2)(C(F)(F)F)O1` [Efavirenz], for which the “Combination Indices at 50% HIV Inhibition (Confidence Interval)” value in experiment [1] (setting [3]) is reported as 0.93 (0.74, 1.12); in experiment [1] (setting [4]), 0.71 (0.58, 0.85); in experiment [1] (setting [5]) it was 0.82 (0.62, 1.02). Besides, the “Combination Indices at 75% HIV Inhibition (Confidence Interval)” value in experiment [1] (setting [3]) was 0.70 (0.51, 0.90); in experiment [1] (setting [4]) it was 0.85 (0.62, 1.08); in experiment [1] (setting [5]) it was 0.83 (0.55, 1.12). The “Combination Indices at 90% HIV Inhibition (Confidence Interval)” value in experiment [1] (setting [3]) was 0.57 (0.32, 0.82); in experiment [1] (setting [4]), 1.10 (0.64, 1.56); in experiment [1] (setting [5]), 0.89 (0.41, 1.36). The entries for the “Overall Result of two-drug combination” value in experiment [1] and in experiment [1] (listed as efavirenz) were “Additive-” and “additive to synergistic”, respectively. For the same compound, the EC50 in experiment [2] was found to be 0.6 nM.

On to `Cc1cn([C@H]2C[C@H](N=[N+]=[N-])[C@@H](CO)O2)c(=O)[nH]c1=O` [Zidovudine], for which the “Combination Indices at 50% HIV Inhibition (Confidence Interval)” value is 0.30 (0.17, 0.42) in experiment [1] (setting [3]); 0.20 (0.16, 0.25) in experiment [1] (setting [4]); 0.04 (0.03, 0.04) in experiment [1] (setting [5]). Also, the “Combination Indices at 75% HIV Inhibition (Confidence Interval)” value in experiment [1] (setting [3]) is given as 0.48 (0.20, 0.76); in experiment [1] (setting [4]) it was 0.30 (0.21, 0.40); in experiment [1] (setting [5]), 0.04 (0.03, 0.05). Besides, the “Combination Indices at 90% HIV Inhibition (Confidence Interval)” value in experiment [1] (setting [3]) is given as 0.78 (0.05, 1.51); in experiment [1] (setting [4]), 0.45 (0.22, 0.68); in experiment [1] (setting [5]) it was 0.04 (0.03, 0.05). The “Overall Result of two-drug combination” value in experiment [1] is “Synergistic”.
